# Test results as given in US8338587B2, “Compounds” (AstraZeneca AB, priority 2009, dated 2012).
# Molecular target: T1, recombinant human GR (Homo sapiens, UniProt P04150)
# T1 construct: purchased Panvera/Invitrogen P2812 (kit P2893)
# T1 sequence (P04150 1-777): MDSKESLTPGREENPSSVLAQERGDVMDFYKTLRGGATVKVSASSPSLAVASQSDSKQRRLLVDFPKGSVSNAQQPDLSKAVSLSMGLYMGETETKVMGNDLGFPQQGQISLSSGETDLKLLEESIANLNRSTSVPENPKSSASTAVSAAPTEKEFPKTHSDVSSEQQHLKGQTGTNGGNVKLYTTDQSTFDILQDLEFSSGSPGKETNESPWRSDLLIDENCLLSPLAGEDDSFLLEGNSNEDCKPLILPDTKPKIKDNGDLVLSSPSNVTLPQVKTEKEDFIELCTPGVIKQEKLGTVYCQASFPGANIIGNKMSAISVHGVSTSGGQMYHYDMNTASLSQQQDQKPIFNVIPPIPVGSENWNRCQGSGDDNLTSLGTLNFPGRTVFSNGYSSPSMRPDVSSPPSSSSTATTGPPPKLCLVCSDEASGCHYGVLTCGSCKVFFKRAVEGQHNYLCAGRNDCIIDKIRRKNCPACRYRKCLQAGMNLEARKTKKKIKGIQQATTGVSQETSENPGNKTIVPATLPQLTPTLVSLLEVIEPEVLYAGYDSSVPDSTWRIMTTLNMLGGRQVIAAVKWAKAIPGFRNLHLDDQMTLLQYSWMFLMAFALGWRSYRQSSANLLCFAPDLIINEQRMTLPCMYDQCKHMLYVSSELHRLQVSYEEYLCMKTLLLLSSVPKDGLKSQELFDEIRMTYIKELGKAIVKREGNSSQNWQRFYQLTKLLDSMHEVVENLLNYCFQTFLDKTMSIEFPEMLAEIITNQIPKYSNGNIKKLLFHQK
# Assay: Human Glucocorticoid Receptor (GR) Assay (fluorescence polarization competition, Panvera/Invitrogen kit)
# Settings: GS Red Fluoromone tracer, 2 hours at room temperature, 100% control 10 μM Dexamethasone, read-out: Inhibition of GR binding, IC50
# Procedure: Human Glucocorticoid Receptor (GR) Assay The assay is based on a commercial kit from Panvera/Invitrogen (Part number P2893). The assay technology is fluorescence polarization. The kit utilises recombinant human GR (Panvera, Part number P2812), a Fluoromone™ labelled tracer (GS Red, Panvera, Part number P2894) and a Stabilizing Peptide 10× (Panvera, Part number P2815). The GR and Stabilizing Peptide reagents are stored at −70° C. while the GS Red is stored at −20° C. Also included in the kit are 1M DTT (Panvera, Part number P2325, stored at −20° C.) and GR Screening buffer 10× (Panvera, Part number P2814, stored at −70° C. initially but once thawed stored at room temperature). Avoid repeated freeze/thaws for all reagents. The GR Screening buffer 10× comprises 100 mM potassium phosphate, 200 mM sodium molybdate, 1 mM EDTA and 20% DMSO. Test compounds (1 μL) and controls (1 μL) in 100% DMSO were added to black is polystyrene 384-well plates (Greiner low volume black flat-bottom, part number 784076). 0% control was 100% DMSO and 100% control was 10 μM Dexamethasone. Background solution (8 μL; assay buffer 10×, Stabilizing Peptide, DTT and ice cold MQ water) was added to the background wells. GS Red solution (7 μL; assay buffer 10×, Stabilizing Peptide, DTT, GS Red and ice cold water) was added to all wells except background wells. GR solution (7 μL; assay buffer 10×, Stabilizing Peptide, DTT, GR and ice cold water) was added to all wells. The plate was sealed and incubated in a dark at room temperature for 2 hours. The plate was read in an Analyst plate reader (LJL Biosystems/Molecular Devices Corporation) or other similar plate reader capable of recording fluorescence polarization (excitation wavelength 530 nm, emission wavelength 590 nm and a dichroic mirror at 561 nm).
row,Compound,IC50 [nM]
1,"C[C@]12Cc3cnn(-c4ccc(F)nc4)c3C=C1CC[C@H]1[C@@H]3CC[C@](OC(=O)C4CCOC4)(C(=O)SCC#N)[C@@]3(C)C[C@H](O)[C@@]12F (mixture of isomers) [Example 15 (racemate), (1R,3aS,3bS,10aS,10bR,11S,12aS)-1-{[(Cyanomethyl)sulfanyl]carbonyl}-10b-fluoro-7-(6-fluoropyridin-3-yl)-11-hydroxy-10a,12a-dimethyl-1,2,3,3a,3b,4,5,7,10,10a,10b,11,12,12a-tetradecahydrocyclopenta[5,6]naphtho[1,2-f]indazol-1-yl tetrahydrofuran-3-carboxylate]",0.55
2,"C[C@]12Cc3cnn(-c4ccc(F)nc4)c3C=C1CC[C@H]1[C@@H]3CC[C@](OC(=O)C4CCOC4)(C(=O)SCF)[C@@]3(C)C[C@H](O)[C@@]12F (mixture of isomers) [Example 16 (racemate), (1R,3aS,3bS,10aS,10bR,11S,12aS)-10b-Fluoro-1-{[(fluoromethyl)sulfanyl]carbonyl}-7-(6-fluoropyridin-3-yl)-11-hydroxy-10a,12a-dimethyl-1,2,3,3a,3b, 4,5,7,10,10a,10b,11,12,12a-tetradecahydrocyclopenta[5,6]naphtho[1,2-f]indazol-1-yl tetrahydrofuran-3-carboxylate]",0.53
3,"C[C@]12Cc3cnn(-c4ccc(F)nc4)c3C=C1CC[C@H]1[C@@H]3CC[C@](OC(=O)C4CCOC4)(C(=O)SCC#N)[C@@]3(C)C[C@H](O)[C@@]12F (single isomer, unassigned) [15 (R)/(S) isomer]",0.57
4,"C[C@]12Cc3cnn(-c4ccc(F)nc4)c3C=C1CC[C@H]1[C@@H]3CC[C@](OC(=O)C4CCOC4)(C(=O)SCC#N)[C@@]3(C)C[C@H](O)[C@@]12F (single isomer, unassigned) [15 (S)/(R) isomer]",0.58
5,"C[C@]12Cc3cnn(-c4ccc(F)nc4)c3C=C1CC[C@H]1[C@@H]3CC[C@](OC(=O)C4CCOC4)(C(=O)SCF)[C@@]3(C)C[C@H](O)[C@@]12F (single isomer, unassigned) [16 (R)/(S) isomer]",0.44
6,"C[C@]12Cc3cnn(-c4ccc(F)nc4)c3C=C1CC[C@H]1[C@@H]3CC[C@](OC(=O)C4CCOC4)(C(=O)SCF)[C@@]3(C)C[C@H](O)[C@@]12F (single isomer, unassigned) [16 (S)/(R) isomer]",1.3
7,"C[C@]12Cc3cnn(-c4ccc(F)cc4)c3C=C1CC[C@@H]1[C@@H]2[C@@H](O)C[C@@]2(C)[C@H]1CC[C@]2(OC(=O)C1CCCO1)C(=O)SCCO (single isomer, unassigned) [Example 18]",3.1
8,"CC12Cc3cnn(-c4ccc(F)nc4)c3C=C1CC[C@@H]1C2[C@@H](O)C[C@@]2(C)[C@H]1CC[C@]2(OC(=O)C1CC1)C(=O)OCC#N (stereo in doubt) [Example 20, (1R,3aS,3bS,10aS,10bR,11S,12aS)-1-{[Cyanomethyloxy]carbonyl}-7-(6-fluoropyridin-3-yl)-11-hydroxy-10a,12a-dimethyl-1,2,3,3a,3b,4,5,7,10,10a,10b,11,12,12a-tetradecahydrocyclopenta[5,6]naphtho[1,2-f]indazol-1-yl cyclopropanecarboxylate]",2.3
9,"COCC(=O)O[C@]1(C(=O)SCF)[C@H](C)C[C@H]2[C@@H]3CCC4=Cc5c(cnn5-c5ccc(F)nc5)C[C@]4(C)[C@@]3(F)[C@@H](O)C[C@@]21C [Example 1, (1R,2R,3aS,3bS,10aS,10bR,11S,12aS)-10b-Fluoro-1-{[(fluoromethyl)sulfanyl]carbonyl}-7-(6-fluoropyridin-3-yl)-11-hydroxy-2,10a,12a-trimethyl-1,2,3,3a,3b,4,5,7,10,10a,10b,11,12,12a-tetradecahydrocyclopenta[5,6]naphtho[1,2-f]indazol-1-yl methoxyacetate]",3.5
10,"CCC(=O)O[C@]1(C(=O)SCF)[C@H](C)C[C@H]2[C@@H]3CCC4=Cc5c(cnn5-c5ccc(F)nc5)C[C@]4(C)[C@@]3(F)[C@@H](O)C[C@@]21C [Example 2, (1R,2R,3aS,3bS,10aS,10bR,11S,12aS)-10b-Fluoro-1-{[(fluoromethyl)sulfanyl]carbonyl}-7-(6-fluoropyridin-3-yl)-11-hydroxy-2,10a,12a-trimethyl-1,2,3,3a,3b,4,5,7,10,10a,10b,11,12,12a-tetradecahydrocyclopenta[5,6]naphtho[1,2-f]indazol-1-yl propanoate]",1.9
11,"CCC(=O)O[C@]1(C(=O)SCC#N)[C@H](C)C[C@H]2[C@@H]3CCC4=Cc5c(cnn5-c5ccc(F)nc5)C[C@]4(C)[C@@]3(F)[C@@H](O)C[C@@]21C [Example 3, (1R,2R,3aS,3bS,10aS,10bR,11S,12aS)-1-{[(Cyanomethyl)sulfanyl]carbonyl}-10b-fluoro-7-(6-fluoropyridin-3-yl)-11-hydroxy-2,10a,12a-trimethyl-1,2,3,3a,3b,4,5,7,10,10a,10b,11,12,12a-tetradecahydrocyclopenta[5,6]naphtho[1,2-f]indazol-1-yl propanoate]",1.6
12,"C[C@@H]1C[C@H]2[C@@H]3CCC4=Cc5c(cnn5-c5ccc(F)nc5)C[C@]4(C)[C@@]3(F)[C@@H](O)C[C@]2(C)[C@@]1(OC(=O)c1cocn1)C(=O)SCF [Example 4, (1R,2R,3aS,3bS,10aS,10bR,11S,12aS)-10b-Fluoro-1-{[(fluoromethyl)sulfanyl]carbonyl}-7-(6-fluoropyridin-3-yl)-11-hydroxy-2,10a,12a-trimethyl-1,2,3,3a,3b,4,5,7,10,10a,10b,11,12,12a-tetradecahydrocyclopenta[5,6]naphtho[1,2-f]indazol-1-yl 1,3-oxazole-4-carboxylate]",2.8
13,"CCC(=O)O[C@]1(C(=O)SCF)[C@H](C)C[C@H]2[C@@H]3CCC4=Cc5c(cnn5-c5ccc(F)cc5)C[C@]4(C)[C@@]3(F)[C@@H](O)C[C@@]21C [Example 5, (1R,2R,3aS,3bS,10aS,10bR,11S,12aS)-10b-Fluoro-1-{[(fluoromethyl)sulfanyl]carbonyl}-7-(4-fluorophenyl)-11-hydroxy-2,10a,12a-trimethyl-1,2,3,3a,3b,4,5,7,10,10a,10b,11,12,12a-tetradecahydrocyclopenta[5,6]naphtho[1,2-f]indazol-1-yl propanoate]",11
14,"COCC(=O)O[C@]1(C(=O)SCF)[C@H](C)C[C@H]2[C@@H]3CCC4=Cc5c(cnn5-c5ccc(F)cc5)C[C@]4(C)[C@@]3(F)[C@@H](O)C[C@@]21C [Example 6, (1R,2R,3aS,3bS,10aS,10bR,11S,12aS)-10b-Fluoro-1-{[(fluoromethyl)sulfanyl]carbonyl}-7-(4-fluorophenyl)-11-hydroxy-2,10a,12a-trimethyl-1,2,3,3a,3b,4,5,7,10,10a,10b,11,12,12a-tetradecahydrocyclopenta[5,6]naphtho[1,2-f]indazol-1-yl methoxyacetate]",7.8
15,"CCC(=O)O[C@]1(C(=O)SCF)CC[C@H]2[C@@H]3C[C@H](C)C4=Cc5c(cnn5-c5ccc(F)nc5)C[C@]4(C)[C@H]3[C@@H](O)C[C@@]21C [Example 7, (1R,3aS,3bS,5S,10aR,10bS,11S,12aS)-1-{[(Fluoromethyl)sulfanyl]carbonyl}-7-(6-fluoropyridin-3-yl)-11-hydroxy-5,10a,12a-trimethyl-1,2,3,3a,3b,4,5,7,10,10a,10b,11,12,12a-tetradecahydrocyclopenta[5,6]naphtho[1,2-f]indazol-1-yl propanoate]",1.9
